Data reported in US12304912B2, “Fused bicyclic RAF inhibitors and methods for use thereof” (Jazz Pharmaceuticals Ireland Limited, priority 2020, dated 2025).

Assays:
[1] = test system: BRAF monomers in A375 cells; experiment: A375 AlphaLISA SureFire pERK1/2 cellular assay (monomer); assay type: cell-based; settings: Homo sapiens, A-375; A375 cells, 1 hr; read-out: pERK A375 (1 hr) pIC50 (converted)
Protocol: (§1) The human HCT-116 colorectal carcinoma cell line (ATCC CCL-247) endogenously expresses the KRAS^G13D mutation, which leads to constitutive activation of the MAP kinase pathway and phosphorylation of ERK. […] Assay read outs took place 2 or 24 hours after dosing with compounds. On the first day, HCT-116 cells were harvested, resuspended in growth medium (McCoys5A with Glutamax (Life Technologies 36600021) and 10% heat-inactivated fetal bovine serum (Sigma F9665)), and counted. Cells were plated in 100 μl per well in each well of a 96-well culture dish (Sigma CLS3598) to a final density of 30,000 (2 hr read) or 15,000 (24 hr read) cells per well and incubated over night at 37° C. and 5% CO2. On day 2, the growth medium was exchanged for dosing medium (McCoys5A with Glutamax (Life Technologies 36600021) and 1% heat-inactivated fetal bovine serum (Sigma F9665)) and the cells were dosed with compounds to produce a 10-point dose response, where the top concentration was 1 μM and subsequent concentrations were at 1/3 log dilution intervals. A matched DMSO control was included. The cells were subsequently incubated for either 2 or 24 hours at 37° C. and 5% CO2. After incubation, media was removed and the cells were incubated with lysis buffer containing phosphatase inhibitors for 15 minutes at room temperature. Cell lysates were transferred to a 12 area 96 well white Optiplate™ (Perkin Elmer 6005569) and incubated with anti-mouse IgG acceptor beads, a biotinylated anti-ERK1/2 rabbit antibody recognizing both phosphorylated and non-phosphorylated ERK1/2, a mouse antibody targeted to the Thr202/Tyr204 epitope and recognizing phosphorylated ERK proteins only, and streptavidin-coated donor beads. The biotinylated antibody binds to the streptavidin-coated donor beads and the phopsho-ERK1/2 antibody binds to the acceptor beads. Plates were read on an EnVision reader (Perkin Elmer) and excitation of the beads at 680 nm with a laser induced the release of singlet oxygen molecules from the donor beads that trigger energy transfer to the acceptor beads in close proximity, producing a signal that can be measured at […]. Both antibodies bound to phosphorylated ERK proteins, bringing the donor and acceptor beads into close proximity. All data were analyzed using the Dotmatics or GraphPad Prism software packages. Inhibition of ERK phosphorylation was assessed by determination of the absolute IC50 value, which is defined as the concentration of compound required to decrease the level of phosphorylated ERK proteins by 50% when compared to DMSO control.
A375 AlphaLISA SureFire pERK1/2 Cellular Assay (Monomer)
The human A375 melanoma cell line (ATCC CRL-1619) endogenously expresses the BRAF^V600E mutation, which leads to constitutive activation of the MAP kinase pathway and phosphorylation of ERK. In BRAF^V600E mutant tumours, BRAF signals as a monomer to activate ERK. To determine whether compounds can inhibit BRAF monomers in A375 cells, they were tested using AlphaLISA® SureFire® technology (Perkin Elmer p-ERK1/2 p-T202/Y204 assay kit ALSU-PERK-A10K). The main procedure is essentially the same as described above for HCT-116 cells, with the following adjustments: The A375 cells were cultivated and dosed in Dulbecco's modified Eagle's medium containing 4.5 g/L D-glucose (Sigma D6546), 10% heat-inactivated fetal bovine serum (Sigma F9665), and 1% Sodium-Pyruvate (Sigma S8636), and seeded with a seeding density of 30,000 cells per well. No media exchange was performed before dosing with compounds to produce a 10-point dose response, where the top concentration was 10 μM and subsequent concentrations were at 1/2 log dilution intervals. Subsequently, the cells were incubated for 1 hour at 37° C. and 5% CO2 before lysis.

[2] = test system: RAF dimers in HCT-116 cells; experiment: HCT-116 AlphaLISA SureFire pERK1/2 cellular assay (dimer); assay type: cell-based; settings: Homo sapiens, HCT-116; HCT116 cells pre-dosed with 1 μM Encorafenib, 1 hr; read-out: pERK HCT116 dimer (1 hr) pIC50 (converted)
Protocol: as §1
HCT-116 AlphaLISA SureFire pERK1/2 Cellular Assay (Dimer)
The human HCT-116 colorectal carcinoma cell line (ATCC CCL-247) endogenously expresses the KRAS^G13D mutation, which leads to constitutive activation of the MAP kinase pathway and phosphorylation of ERK. First generation RAF inhibitors can promote RAF dimer formation in KRAS mutant tumours leading to a paradoxical activation of the pathway. To determine whether compounds can circumvent this problem and inhibit RAF dimers in HCT-116 cells, they were tested using AlphaLISA® SureFire® technology (Perkin Elmer p-ERK1/2 p-T202/Y204 assay kit ALSU-PERK-A10K). The main procedure is essentially the same as described above, with the following adjustments: Cells were seeded with the seeding density of 30,000 cells per well. On the second day (the day of dosing) no medium change was performed and the cells were dosed with 1 μM of Encorafenib for 1 hour (at 37° C. and 5% CO2) to induce RAF dimers and promote paradoxical dimer-dependent pERK signalling. After incubation, the cells were washed, 100 μl fresh growth medium was added, and cells were dosed with compounds of interest to produce a 10-point dose response, where the top concentration was 10 μM and subsequent concentrations are at 1/2 log dilution intervals. Cells were incubated for another hour at 37° C. and 5% CO2 before lysis and processing with the pERK AlphaLISA® SureFire® kit as described above. […]

[3] = Microsomal stability assay, human liver microsomes (HLM); assay type: in vitro ADME; settings: 0.5 mg/mL protein, 1 μM substrate
Protocol: (§2) Microsomal Stability Assay
(§3) The stability studies were performed manually using the substrate depletion approach. Test compounds were incubated at 37° C. with cryo-preserved mouse or human liver microsomes (Corning) at a protein concentration of 0.5 mg·mL^−1 and a final substrate concentration of 1 μM. Aliquots were removed from the incubation at defined timepoints and the reaction was terminated by adding to ice-cold organic solvent. Compound concentrations were determined by LC-MS/MS analysis. The natural log of the percentage of compound remaining was plotted against each time point and the slope determined. The half-life (t1/2) and CLint were calculated using Equations 1 and 2, respectively.
(§4) HLM (human liver microsomes) and MLM (mouse liver microsomes) stability assay results are described in Tables 1-2.

[4] = Microsomal stability assay, mouse liver microsomes (MLM); assay type: in vitro ADME; settings: 0.5 mg/mL protein, 1 μM substrate
Protocol: as §2, §3, §4

[5] = Solubility (Sol), medium not stated; assay type: physicochemical; settings: cells not marked (FESSIF)
[6] = Plasma protein binding assay, human plasma (hPPB); assay type: in vitro ADME; settings: 5 μM, equilibrium dialysis 4 hours 37° C.
Protocol: (§5) Plasma Protein Binding Assay The plasma protein binding was determined by the equilibrium dialysis method. A known concentration of compound (5 μM) in previously frozen human or mouse plasma (Sera Labs) was dialysed against phosphate buffer using a RED device (Life Technologies) for 4 hours at 37° C. The concentration of compound in the protein containing (PC) and protein free (PF) sides of the dialysis membrane were determined by LC-MS/MS and the % free compound was determined by equation 4. Data analysis was performed using Excel (Microsoft, USA). % free=(1−((PC−PF)/PC))×100 (4) hPPB (human plasma protein binding) and mPPB (mouse plasma protein binding) results are described in Tables 1-2.

[7] = Plasma protein binding assay, mouse plasma (mPPB); assay type: in vitro ADME; settings: 5 μM, equilibrium dialysis 4 hours 37° C.
Protocol: as §5

Compound | IC50 [1] [nM] | IC50 [2] [nM] | microsomal CLint at 1 μM [3] [µL/min/mg] | microsomal CLint at 1 μM [4] [µL/min/mg] | Sol [5] [mg/L] | hPPB (% free) [6] [% free] | mPPB (% free) [7] [% free]
O=C1CCc2c(Oc3ccc4c(c3)CC(c3cc(-c5ccc(C(F)(F)F)cc5)n[nH]3)CO4)ccnc2N1 (centres unmarked) [Compound 38] | 8510 | 3980 | 3 | 4.3 | <1.3 | – | –
Cc1ccccc1-c1c[nH]c(C2COc3ccc(Oc4ccnc5c4CCC(=O)N5)cc3C2)n1 (centres unmarked) [Compound 2, 5-[3-[4-(o-tolyl)-1H-imidazol-2-yl]chroman-6-yl]oxy-3,4-dihydro-1H-1,8-naphthyridin-2-one] | 12.6 | 58.9 | 147 | 85.8 | <1.1 | 0.3 | 1
COc1ccccc1-c1cc(C2COc3ccc(Oc4ccnc5c4CCC(=O)N5)cc3C2)[nH]n1 (centres unmarked) [Compound 40] | 251 | 324 | – | 27.1 | <1.2 | – | –
O=C1CCc2c(Oc3ccc4c(c3)CC(c3cc(-c5cccc(Cl)c5)n[nH]3)CO4)ccnc2N1 (centres unmarked) [Compound 37] | 501 | 339 | – | 18.4 | <1.2 | – | –
COc1cccc(-c2cc(C3COc4ccc(Oc5ccnc6c5CCC(=O)N6)cc4C3)[nH]n2)c1 (centres unmarked) [Compound 41] | 513 | 302 | – | 46.1 | <1.2 | – | 1.2
N#Cc1cccc(-c2c[nH]c(C3COc4ccc(Oc5ccnc6c5CCC(=O)N6)cc4C3)n2)c1 (centres unmarked) [Compound 16, 3-[2-[6-[(7-oxo-6,8-dihydro-5H-1,8-naphthyridin-4-yl)oxy]chroman-3-yl]-1H-imidazol-4-yl]benzonitrile] | 575 | 617 | – | – | <1.2 | – | –
O=C1CCc2c(Oc3ccc4c(c3)CN(C(=O)Nc3ccccc3)CC4)ccnc2N1 [Compound 46, 7-[(7-oxo-6,8-dihydro-5H-1,8-naphthyridin-4-yl)oxy]-N-phenyl-3,4-dihydro-1H-isoquinoline-2-carboxamide] | – | – | 18.4 | 45.5 | <1 | 1.9 | 2.3
O=C1CCc2c(Oc3ccc4c(c3)CC(c3nc5cc(C(F)(F)F)cc(Cl)c5[nH]3)CO4)ccnc2N1 (centres unmarked) [Compound 30] | 162 | 1320 | – | – | <1.3 | – | –
O=C1CCc2c(Oc3ccc4c(c3)CC(c3cc(-c5cccc(C(F)(F)F)c5)n[nH]3)CO4)ccnc2N1 (centres unmarked) [Compound 42] | 891 | 741 | 10.6 | 22 | <1.3 | – | <0.1
CN(C)Cc1cc(C(F)(F)F)c2nc(C3COc4ccc(Oc5ccnc6c5CCC(=O)N6)cc4C3)[nH]c2c1 (centres unmarked) [Compound 34] | 4470 | – | 46.9 | 8.6 | 28.7 | 0.7 | 3.2
O=C1CCc2c(Oc3ccc4c(c3)CC(c3cc(-c5ccccc5C(F)(F)F)n[nH]3)CO4)ccnc2N1 (centres unmarked) [Compound 35, 5-[3-[3-[2-(trifluoromethyl)phenyl]-1H-pyrazol-5-yl]chroman-6-yl]oxy-3,4-dihydro-1H-1,8-naphthyridin-2-one] | 2450 | 525 | 277 | 42.1 | <1.3 | <0.1 | –
O=C1CCc2c(Oc3ccc4c(c3)CC(c3cc(-c5ccccc5Cl)n[nH]3)CO4)ccnc2N1 (centres unmarked) [Compound 36] | 525 | 174 | 23.5 | 18.4 | <1.2 | – | <0.1
c1ccc(-c2c[nH]c(C3COc4ccc(OC5CCOCC5)cc4C3)n2)cc1 (centres unmarked) [compound 51] | – | – | 156 | 123 | 1.2 | 0.5 | 2.6
